Key:
hA1AR [1] = target: T1, hA1AR (Homo sapiens, UniProt P30542); experiment: Competition binding, [3H]DPCPX, hA1 CHO cell membranes; conditions: displacement of [3H]DPCPX, hA1 CHO cells; mean ± SEM of four assays
T1 construct: host or cells: CHO cells
T1 sequence (P30542 1-326): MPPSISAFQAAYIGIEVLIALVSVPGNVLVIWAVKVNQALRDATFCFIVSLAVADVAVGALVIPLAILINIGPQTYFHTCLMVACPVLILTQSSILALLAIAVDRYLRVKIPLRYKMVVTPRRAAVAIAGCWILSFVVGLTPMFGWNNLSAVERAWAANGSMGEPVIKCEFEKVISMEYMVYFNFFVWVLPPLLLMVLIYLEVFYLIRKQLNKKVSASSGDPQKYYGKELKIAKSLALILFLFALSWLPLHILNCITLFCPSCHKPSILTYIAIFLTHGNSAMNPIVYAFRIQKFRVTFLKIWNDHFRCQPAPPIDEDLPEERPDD
Description: (§1) CHO cells transfected with hA1, hA2A, hA2B and hA3 ARs (Perkin Elmer, Boston, MA, USA) were grown adherently and maintained in Dulbecco’s modified Eagle’s medium with nutrient mixture F12, containing 10% fetal calf serum, penicillin (100 U/mL), streptomycin (100 μg/mL), L-glutamine (2 mM) and geneticine (G418; 0.2 mg/mL), at 37 °C, in 5% CO2/95% air, until their use in cAMP assays. For membrane preparation, the culture medium was removed, and the cells were washed with phosphate-buffered saline and scraped off T75 flasks in ice-cold hypotonic buffer (5 mM Tris HCl, 1 mM EDTA, pH 7.4). The cell suspension was homogenized with a Polytron, centrifuged for 30 min at 40,000× g, at 4 °C, and the resulting membrane pellet was used for competition binding experiments.
(§2) All synthesized compounds were tested for their affinity to hA1, hA2A and hA3 ARs. Competition experiments to hA1AR were carried out by incubating 1 nM [^3H]-8-cyclopentyl-1,3-dipropylxanthine ([^3H]-DPCPX) with membrane suspension (50 μg of protein/100 μL) and different concentrations of the examined compounds at 25 °C for 90 min in 50 mM Tris HCl, pH 7.4. Non-specific binding was defined as binding in the presence of 1 μM DPCPX and was always <10% of the total binding. Inhibition experiments to hA2A ARs were performed by incubating the radioligand [^3H]-4-(-2-[7-amino-2-{2-furyl}{1,2,4}triazolo{2,3-a} {1,3,5}triazin-5-yl-amino]ethyl)phenol ([^3H]-ZM241385) (1 nM) with the membrane suspension (50 μg of protein/100 μL) and different concentrations of the examined compounds for 60 min, at 4 °C, in 50 mM Tris HCl (pH 7.4), 10 mM MgCl2. Non-specific binding was determined in the presence of ZM241385 (1 μM) and was about 20% of the total binding. Competition binding experiments to A3ARs were carried out by incubating the membrane suspension (50 μg of protein/100 μL) with 0.5 nM [^125I]-N6-(4-aminobenzyl)-N-methylcarboxamidoadenosine ([^125I]-ABMECA) in the presence of different concentrations of the examined compounds for an incubation time of 120 min, at 4 °C, in 50 mM Tris HCl (pH 7.4), 10 mM MgCl2, 1 mM EDTA. Non-specific binding was defined as binding in the presence of 1 μM ABMECA and was always <10% of the total binding. Bound and free radioactivity were separated by filtering the assay mixture through Whatman GF/B glass-fiber filters, using a Brandel cell harvester (Brandel Instruments, Unterföhring, Germany). The filter bound radioactivity was counted by Packard Tri Carb 2810 TR scintillation counter (Perkin Elmer).
(§3) The protein concentration was determined according to a Bio-Rad method, with bovine albumin as a standard reference. Inhibitory binding constant (Ki) values were calculated from those of IC50 according to the Cheng–Prusoff equation, Ki = IC50/(1 + [C*]/KD*), where [C*] is the concentration of the radioligand, and KD* its dissociation constant. Ki and IC50 values were calculated by non-linear regression analysis, using the equation for a sigmoid concentration-response curve (Graph-PAD Prism, San Diego, CA, USA).

hA2AAR = target: T2, hA2AAR (Homo sapiens, UniProt P29274); experiment: Competition binding, [3H]ZM241385, hA2A CHO cell membranes; conditions: displacement of [3H]ZM241385, hA2A CHO cells; mean ± SEM of four assays
T2 construct: host or cells: CHO cells
Description: as §1, §2, §3

hA3AR = target: T3, hA3AR (Homo sapiens, UniProt P0DMS8); experiment: Competition binding, [125I]AB-MECA, hA3 CHO cell membranes; conditions: for inhibition at 1 µM: 1 µM compound, [125I]AB-MECA binding, read-out: I% hA3 (percentage of inhibition); for Ki: displacement of [125I]AB-MECA, hA3 CHO cells, mean ± SEM of four assays
T3 construct: host or cells: CHO cells
T3 sequence (P0DMS8 1-318): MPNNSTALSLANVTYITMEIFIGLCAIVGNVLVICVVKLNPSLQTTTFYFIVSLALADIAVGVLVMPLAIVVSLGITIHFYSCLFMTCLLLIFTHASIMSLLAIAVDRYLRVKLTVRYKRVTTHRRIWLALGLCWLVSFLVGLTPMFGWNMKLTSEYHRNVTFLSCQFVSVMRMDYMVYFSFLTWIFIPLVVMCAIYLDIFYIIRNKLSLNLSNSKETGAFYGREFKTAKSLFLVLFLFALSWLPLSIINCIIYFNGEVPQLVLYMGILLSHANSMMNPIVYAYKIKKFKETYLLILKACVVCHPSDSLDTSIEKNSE
Description: as §1, §2, §3

hA2B AR [2] = target: T4, hA2B AR (Homo sapiens, UniProt P29275); experiment: cAMP assay in CHO cells expressing hA2B AR (stimulation of cAMP production); type: cell-based; conditions: for Emax at 1 µM: CHO, 1 µM compound, in comparison with NECA (1 µM = 100%), read-out: Efficacy hA2B (cAMP assay) (converted); for EC50: hA2B CHO cells, mean ± SEM of four assays
T4 construct: host or cells: CHO cells
T4 sequence (P29275 1-332): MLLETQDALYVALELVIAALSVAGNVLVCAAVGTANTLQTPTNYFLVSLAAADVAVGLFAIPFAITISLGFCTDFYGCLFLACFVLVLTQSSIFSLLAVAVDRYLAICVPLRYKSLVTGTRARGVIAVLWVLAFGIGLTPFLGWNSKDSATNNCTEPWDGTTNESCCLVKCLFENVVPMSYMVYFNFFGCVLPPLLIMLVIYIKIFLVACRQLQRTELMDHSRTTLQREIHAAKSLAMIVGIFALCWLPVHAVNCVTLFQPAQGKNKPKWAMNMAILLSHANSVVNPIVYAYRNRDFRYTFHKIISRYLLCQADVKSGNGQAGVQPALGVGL
Description: (§4) The amino-3,5-dicyanopyridines 1–21 were tested for their affinity at hA1, hA2A and hA3 ARs, stably transfected in Chinese Hamster Ovary (CHO) cells. Moreover, they were also studied as hA2B agonists by evaluating their stimulatory effect on cAMP production in CHO cells, stably expressing the hA2B AR. […] Due to their interesting pan profile, both compounds 1 and 5 were evaluated as AR agonists also at the hA2A and hA3 subtypes.
as §1
(§5) CHO cells transfected with hAR subtypes were washed with phosphate-buffered saline, detached with tripsine and centrifuged for 10 min at 200× g. Cells were seeded in a 96-well white half-area microplate (Perkin Elmer, Boston, USA) in a stimulation buffer composed of Hank Balanced Salt Solution, 5 mM HEPES, 0.5 mM Ro 20–1724, 0.1% BSA. The cAMP levels were then quantified by using the AlphaScreen cAMP Detection Kit (Perkin Elmer, Boston, MA, USA), following the manufacturer’s instructions. At the end of the experiments, the plates were read with a Perkin Elmer EnSight Multimode Plate Reader.

hA1AR [3] = target: T1, hA1AR; experiment: Modulation of Forskolin-stimulated cAMP levels in hA1 CHO cells; type: cell-based; conditions: for IC50: footnote d, vs CCPA 10 nM; for hA1AR Efficacy: normalized: CCPA full agonist = 100%, DPCPX inverse agonist = −100%; for hA1AR Profile: pharmacological profile in cAMP assay
Description: as §4, §1, §5

hA2B AR [4] = target: T4, hA2B AR; design: method as in PMID 15239649; conditions: in comparison with NECA; ref [2]; cited from earlier work

T2 sequence (P29274 whole entry): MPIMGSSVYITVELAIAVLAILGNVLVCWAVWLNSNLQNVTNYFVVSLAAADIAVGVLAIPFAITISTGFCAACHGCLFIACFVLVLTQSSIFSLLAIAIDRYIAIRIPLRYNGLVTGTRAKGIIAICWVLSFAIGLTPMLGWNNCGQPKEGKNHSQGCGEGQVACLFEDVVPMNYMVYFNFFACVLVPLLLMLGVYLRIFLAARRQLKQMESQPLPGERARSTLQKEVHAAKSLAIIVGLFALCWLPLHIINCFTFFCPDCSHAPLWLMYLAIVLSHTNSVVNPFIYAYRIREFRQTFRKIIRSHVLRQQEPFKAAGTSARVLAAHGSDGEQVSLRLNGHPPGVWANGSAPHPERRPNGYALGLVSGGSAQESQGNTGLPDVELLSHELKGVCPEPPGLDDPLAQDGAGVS

| Structure (SMILES) | Ki (hA1AR [1]) | Ki (hA2AAR) | inhibition at 1 µM (hA3AR) | Emax at 1 µM (hA2B AR [2]) | EC50 (hA2B AR [2]) | IC50 (hA1AR [3]) | hA1AR Efficacy (hA1AR [3]) | hA1AR Profile (hA1AR [3]) | melting point | Efficacy hA2B (cAMP assay) (hA2B AR [4]) | EC50 (hA1AR [3]; footnote c, mean ± SEM of four experiments, read-out: hA1AR EC50 or IC50, potency to modulate Forskolin-stimulated cAMP levels) | Ki (hA3AR) |
| --- | --- | --- | --- | --- | --- | --- | --- | --- | --- | --- | --- | --- |
| N#Cc1c(N)nc(NCc2ncc[nH]2)c(C#N)c1-c1ccco1 [Compound 12, 2-Amino-4-(furan-2-yl)-6-[(1H-imidazol-2-ylmethyl)amino]pyridine-3,5-dicarbonitrile] | 315 ± 28 nM | 157 ± 14 nM | 16% | 3% | > 1000 nM | 768 ± 67 nM | 1.31 ± 0.11% | Antagonist | 265 to 266 °C | – | – | – |
| N#Cc1c(N)nc(SCc2ncc[nH]2)c(C#N)c1-c1ccccc1 [LUF5833, 2-amino-6-[(1H-imidazol-2-ylmethyl)sulfanyl]-4-phenylpyridine-3,5-dicarbonitrile] | – | – | – | – | – | – | – | – | – | 81% | – | – |
| N#Cc1c(N)nc(SCC(=O)NCCc2cnc[nH]2)c(C#N)c1-c1ccco1 [Compound 16, 2-{[6-Amino-3,5-dicyano-4-(furan-2-yl)pyridin-2-yl]sulfanyl}-N-[2-(1H-imidazol-5-yl)ethyl]acetamide] | 30 ± 3 nM | 138 ± 11 nM | 30% | 1% | > 1000 nM | – | −43 ± 4% | Inverse Agonist | 223 to 226 °C | – | 59 ± 4 nM | – |
| Cl.N#Cc1c(N)nc(SCc2cnc[nH]2)c(C#N)c1-c1ccco1 [Compound 11, 2-Amino-4-(furan-2-yl)-6-[(1H-imidazol-5-ylmethyl)sulfanyl]pyridine-3,5-dicarbonitrile hydrochloride] | 51 ± 4 nM | 442 ± 37 nM | – | 4% | > 1000 nM | 125 ± 11 nM | 0.82 ± 0.07% | Antagonist | 147 to 148 °C | – | – | 849 ± 74 nM |
| N#Cc1c(N)nc(SCc2ncc[nH]2)c(C#N)c1-c1ccsc1 [Compound 6, 2-Amino-6-[(1H-imidazol-2-ylmethyl)sulfanyl]-4-(thiophen-3-yl)pyridine-3,5-dicarbonitrile] | 1.01 ± 0.09 nM | 55 ± 6 nM | – | 47% | 3.15 ± 0.29 nM | – | – | – | 239 to 241 °C (dec.) | – | – | 221 ± 20 nM |
| N#Cc1c(SCc2ncc[nH]2)nc(N2CCCC2)c(C#N)c1-c1ccco1 [Compound 20] | 41 ± 3 nM | 89 ± 7 nM | – | 8% | > 1000 nM | – | – | – | 232 to 234 °C | – | – | 118 ± 11 nM |
| N#Cc1c(N)nc(SCc2ncc[nH]2)c(C#N)c1-c1cccnc1 [Compound 8, 2′-Amino-6′-[(1H-imidazol-2-ylmethyl)sulfanyl]-3,4′-bipyridine-3′,5′-dicarbonitrile] | 5.26 ± 0.48 nM | 463 ± 38 nM | 19% | 58% | 63 ± 5 nM | – | – | – | 244 to 245 °C (dec.) | – | – | – |
| N#Cc1c(N)nc(NCCc2c[nH]cn2)c(C#N)c1-c1ccco1 [Compound 13, 2-Amino-4-(furan-2-yl)-6-{[2-(1H-imidazol-4-yl)ethyl]amino}pyridine-3,5-dicarbonitrile] | 174 ± 14 nM | 125 ± 10 nM | 6% | 9% | > 1000 nM | – | – | – | 242 °C (dec.) | – | – | – |
| N#Cc1c(NC2CCCC2)nc(SCc2ncc[nH]2)c(C#N)c1-c1ccco1 [Compound 18] | 393 ± 32 nM | 138 ± 11 nM | – | 2% | > 1000 nM | – | – | – | 221 to 222 °C | – | – | 279 ± 21 nM |
| N#Cc1c(N)nc(SCC(=O)NCc2cnc[nH]2)c(C#N)c1-c1ccco1 [Compound 15, 2-{[6-Amino-3,5-dicyano-4-(furan-2-yl)pyridin-2-yl]sulfanyl}-N-(1H-imidazol-5-ylmethyl)acetamide] | 378 ± 26 nM | 225 ± 18 nM | – | 1% | > 1000 nM | – | – | – | 269 to 270 °C | – | – | 758 ± 66 nM |
